What was measured:
[1] = target: T1, SIRT1 (Homo sapiens, UniProt Q96EB6); test: Trp mass spectrometry assay of SIRT1 activity; assay type: biochemical; details: for Emax: read-out: Trp % Fold Act
T1 sequence (Q96EB6 1-747): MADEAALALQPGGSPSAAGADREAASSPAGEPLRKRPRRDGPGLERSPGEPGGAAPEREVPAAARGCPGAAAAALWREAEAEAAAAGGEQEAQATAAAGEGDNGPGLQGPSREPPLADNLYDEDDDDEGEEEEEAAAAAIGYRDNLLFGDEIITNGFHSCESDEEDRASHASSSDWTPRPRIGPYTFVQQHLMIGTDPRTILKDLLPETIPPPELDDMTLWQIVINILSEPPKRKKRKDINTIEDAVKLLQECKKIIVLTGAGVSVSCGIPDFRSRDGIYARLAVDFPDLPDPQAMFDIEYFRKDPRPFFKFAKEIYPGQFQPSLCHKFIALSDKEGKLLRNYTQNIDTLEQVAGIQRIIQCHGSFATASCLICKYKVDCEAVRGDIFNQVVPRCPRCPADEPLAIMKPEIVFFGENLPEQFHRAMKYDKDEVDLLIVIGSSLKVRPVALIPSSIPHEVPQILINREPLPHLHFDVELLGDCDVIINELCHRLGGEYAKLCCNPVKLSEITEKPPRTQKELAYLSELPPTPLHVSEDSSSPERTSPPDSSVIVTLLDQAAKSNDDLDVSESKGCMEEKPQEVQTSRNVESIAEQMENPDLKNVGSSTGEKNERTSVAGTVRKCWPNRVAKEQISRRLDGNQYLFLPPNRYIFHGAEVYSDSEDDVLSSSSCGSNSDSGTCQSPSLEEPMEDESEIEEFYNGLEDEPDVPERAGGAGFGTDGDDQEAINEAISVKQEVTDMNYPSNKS
In short: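 Activation readout: EC1.5 (concentration raising activity 50% over control) and percent maximum activation, from mass-spec quantitation of OAADPR or deacetylated Trp peptide. Reaction: 0.5 μM acetylated Trp peptide, 120 μM βNAD+, 10 nM bacterially expressed N-His SIRT1, pH 7.5 HEPES buffer with […], 25 min at 25° C.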

[2] = target: T1, SIRT1; test: TAMRA based mass spectrometry assay of SIRT1 activity; assay type: biochemical; details: for Emax: read-out: TAMRA % Fold Act
In short: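 Deacetylation of a biotinylated, TAMRA-tagged p53-based peptide (0.5 μM) by 10 nM His-tagged SIRT1 with 120 μM βNAD+, 25 °C for 25 min, pH 8 Tris-acetate buffer, across a compound concentration range. Quenched by formic acid and read by mass spec as product peptide or OAADPR; activity relative to DMSO reactions, nicotinamide defining maximal inhibition.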

[3] = concentration of test compound giving 150% activation of SIRT1, Trp peptide substrate
[4] = percent maximum fold activation of SIRT1, Trp peptide substrate
[5] = concentration of test compound giving 150% activation of SIRT1, TAMRA peptide substrate
[6] = percent maximum fold activation of SIRT1, TAMRA peptide substrate
[7] = Trp assay, concentration giving 150% activation of SIRT1
[8] = Trp assay, percent maximum fold activation
[9] = TAMRA assay, concentration giving 150% activation of SIRT1
[10] = TAMRA assay, percent maximum fold activation
[11] = Trp peptide substrate, concentration giving 150% activation of SIRT1
[12] = Trp peptide substrate, percent maximum fold activation
[13] = TAMRA peptide substrate, concentration giving 150% activation of SIRT1
[14] = TAMRA peptide substrate, percent maximum fold activation

CS(=O)(=O)c1cccc(-c2ccc3ncc(C(=O)Nc4nccs4)n3n2)c1 [Compound 11]
Trp EC1.5 (μM) [1, 3]: A (EC1.5<1 μM)
Emax [1, 4]: ≥ 350%
TAMRA EC1.5 (μM) [2, 5]: C (EC1.5>25 μM)
Emax [2, 6]: < 350%

Cc1nc2ccc(-c3cccc(F)c3)nn2c1C(=O)Nc1cccnn1 [Compound 767]
Trp EC1.5 (μM) [1, 7]: A (EC1.5<1 μM)
Emax [1, 8]: ≥ 350%
TAMRA EC1.5 (μM) [2, 9]: B (EC1.5 1-25 μM)
Emax [2, 10]: < 350%

Cc1nn2ccc(-c3ccccc3C(F)(F)F)nc2c1NC(=O)c1cccnc1 [Compound 568]
Trp EC1.5 [1, 11]: C (EC1.5>25 μM)
Emax [1, 12]: < 350%
TAMRA EC1.5 [2, 13]: C (EC1.5>25 μM)
Emax [2, 14]: < 350%

O=C(Nc1cccc(N2CCOCC2)n1)c1cnc2ccc(-c3c(F)cccc3Cl)nn12 [Compound 164]
Trp EC1.5 (μM) [1, 3]: B (EC1.5 1-25 μM)
Emax [1, 4]: < 350%
TAMRA EC1.5 (μM) [2, 5]: A (EC1.5<1 μM)
Emax [2, 6]: ≥ 350%

O=C(Nc1cnccn1)c1cnc2ccc(-c3ccccc3Cl)nn12 [Compound 119]
Trp EC1.5 (μM) [1, 3]: C (EC1.5>25 μM)
Emax [1, 4]: < 350%
TAMRA EC1.5 (μM) [2, 5]: B (EC1.5 1-25 μM)
Emax [2, 6]: < 350%

O=C(Nc1cncc(OC[C@H](O)CO)n1)c1cnc2ccc(-c3ccccc3C(F)(F)F)nn12 [Compound 555]
Trp EC1.5 [1, 11]: A (EC1.5<1 μM)
Emax [1, 12]: ≥ 350%
TAMRA EC1.5 [2, 13]: A (EC1.5<1 μM)
Emax [2, 14]: ≥ 350%

Cc1cccnc1NC(=O)c1cnn2ccc(-c3ccccc3C(F)(F)F)nc12 [Compound 653]
Trp EC1.5 (μM) [1, 7]: B (EC1.5 1-25 μM)
Emax [1, 8]: ≥ 350%
TAMRA EC1.5 (μM) [2, 9]: C (EC1.5>25 μM)
Emax [2, 10]: < 350%

Cc1nn2ccc(-c3ccccc3C(F)(F)F)nc2c1C(=O)Nc1cccnn1 [Compound 695]
Trp EC1.5 (μM) [1, 7]: A (EC1.5<1 μM)
Emax [1, 8]: ≥ 350%
TAMRA EC1.5 (μM) [2, 9]: A (EC1.5<1 μM)
Emax [2, 10]: ≥ 350%

O=C(Nc1ccc(OCC(O)CO)nc1)c1cnc2ccc(-c3ccccc3C(F)(F)F)nn12 (stereo not drawn) [Compound 263]
Trp EC1.5 (μM) [1, 7]: B (EC1.5 1-25 μM)
Emax [1, 8]: < 350%
TAMRA EC1.5 (μM) [2, 9]: B (EC1.5 1-25 μM)
Emax [2, 10]: ≥ 350%

COc1ccc(NC(=O)c2c(C)nc3ccc(-c4cccc(OC(F)(F)F)c4)nn23)nn1 [Compound 718]
Trp EC1.5 (μM) [1, 7]: C (EC1.5>25 μM)
Emax [1, 8]: < 350%
TAMRA EC1.5 (μM) [2, 9]: A (EC1.5<1 μM)
Emax [2, 10]: < 350%

Cn1ccc(NC(=O)c2cnc3ccc(-c4ccccc4C(F)(F)F)nn23)n1 [Compound 112]
Trp EC1.5 (μM) [1, 3]: B (EC1.5 1-25 μM)
Emax [1, 4]: < 350%
TAMRA EC1.5 (μM) [2, 5]: B (EC1.5 1-25 μM)
Emax [2, 6]: ≥ 350%

Cc1nc2ccc(-c3ccccc3C(F)(F)F)nn2c1C(=O)Nc1ccncc1 [Compound 499]
Trp EC1.5 [1, 11]: A (EC1.5<1 μM)
Emax [1, 12]: ≥ 350%
TAMRA EC1.5 [2, 13]: A (EC1.5<1 μM)
Emax [2, 14]: ≥ 350%

O=C(Nc1ccnc(O)c1)c1cnn2ccc(-c3ccccc3OC(F)(F)F)nc12 [Compound 779]
Trp EC1.5 (μM) [1, 7]: A (EC1.5<1 μM)
Emax [1, 8]: ≥ 350%
TAMRA EC1.5 (μM) [2, 9]: A (EC1.5<1 μM)
Emax [2, 10]: ≥ 350%

Cc1cccc(C(=O)Nc2cnc3ccc(N4CC[C@H](F)C4)nn23)n1 [Compound 565, (S)-N-(6-(3-fluoropyrrolidin-1-yl)imidazo[1,2-b]pyridazin-3-yl)-6-methylpicolinamide]
Trp EC1.5 [1, 11]: B (EC1.5 1-25 μM)
Emax [1, 12]: < 350%
TAMRA EC1.5 [2, 13]: B (EC1.5 1-25 μM)
Emax [2, 14]: ≥ 350%

Cc1nc(C(=O)Nc2c(C)nc3ccc(-c4ccccc4Cl)nn23)c(C)s1 [Compound 352]
Trp EC1.5 (μM) [1, 7]: C (EC1.5>25 μM)
Emax [1, 8]: < 350%
TAMRA EC1.5 (μM) [2, 9]: B (EC1.5 1-25 μM)
Emax [2, 10]: < 350%

— patent US9957271B2, “Substituted bicyclic aza-heterocycles and analogues as sirtuin modulators” (GlaxoSmithKline, LLC, priority 2012, dated 2018)
